According to paper PMC6934184, “Selective DNA-PKcs inhibition extends the therapeutic index of localized radiotherapy and chemotherapy” (The Journal of Clinical Investigation, 2019):

Target: T1, AURKC (Aurora C) (Homo sapiens, UniProt Q9UQB9)
T1 construct: purchased Thermo Fisher Scientific (Life Technologies) SelectScreen
Assay: SelectScreen Z'LYTE
Format: biochemical
Summary of the method: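 SelectScreen broad panel; activity (Z'LYTE, Adapta) plus binding formats. ATP: Km app for CSF1R Z'LYTE; 10 for CAMK1 Adapta. Readout = % per kinase.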

T1 sequence (Q9UQB9 whole entry): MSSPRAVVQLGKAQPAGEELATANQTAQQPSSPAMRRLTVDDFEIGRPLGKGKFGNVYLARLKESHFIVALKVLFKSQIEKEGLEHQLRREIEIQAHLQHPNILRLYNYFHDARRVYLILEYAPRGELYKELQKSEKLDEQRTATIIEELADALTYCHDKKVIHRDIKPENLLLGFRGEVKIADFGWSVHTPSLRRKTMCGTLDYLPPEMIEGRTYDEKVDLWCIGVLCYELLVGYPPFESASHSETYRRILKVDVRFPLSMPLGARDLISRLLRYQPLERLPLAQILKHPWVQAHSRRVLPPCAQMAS

CN(C(=O)CN1CCOCC1)c1ccc2sc3c(-c4cccc5c(=O)cc(N6CC7CCC(C6)O7)oc45)cccc3c2c1 [NU5455] was tested, and the inhibition at 1 µM was -5.4%.
